In DBAASP:
In brackets after ≈: the same amount, converted by molar mass. Several values for one entry are separate records, joined by “and”; a condition that tells them apart may be missing. Equal entries are not always repeated. Values belong to the compound of their own block, whether it stands above or below them.

Columns and labels:
Test in all cases: ≥ marks a high value that may be exact or a test limit, other limits are often not marked, values filed in µg/mL are converted to µM
[1] = tested on: Pseudomonas aeruginosa
[2] = tested on: Staphylococcus aureus
[3] = tested on: Escherichia coli
[4] = tested on: Bacillus subtilis
[5] = tested on: Micrococcus luteus
[6] = tested on: Bacillus subtilis AB91021
[7] = tested on: Micrococcus luteus AB93113
[8] = tested on: Escherichia coli ATCC 25726
[9] = tested on: Staphylococcus aureus ATCC 25923
[10] = tested on: Batrachochytrium dendrobatidis JEL-197
[11] = tested on: Escherichia coli ATCC 25922
[12] = tested on: Bordetella bronchiseptica CUN 11844-99
[13] = tested on: Vibrio cholerae CUN 09
[14] = tested on: Pseudomonas aeruginosa CUN 4158-02
[15] = tested on: Staphylococcus aureus ATCC 43300
[16] = tested on: Lacticaseibacillus casei ATCC 4646
[17] = tested on: Veillonella atypica PK1910
[18] = tested on: Streptococcus mutans
[19] = tested on: Streptococcus sanguinis NY101
[20] = tested on: Streptococcus mitis ATCC 903
[21] = tested on: Streptococcus gordonii Challis DL1
[22] = tested on: Escherichia coli ESBL 64771
[23] = tested on: Enterococcus faecalis ATCC 29212
[24] = tested on: Enterobacter cloacae 218R
[25] = tested on: Escherichia coli ESBL 63103
[26] = tested on: Pseudomonas aeruginosa 213
[27] = tested on: Enterococcus faecium t62764
[28] = tested on: Pseudomonas aeruginosa LES400
[29] = tested on: Enterococcus faecalis W61950
[30] = tested on: Stenotrophomonas maltophilia ATCC 13637
[31] = tested on: Pseudomonas aeruginosa H1030
[32] = tested on: Pseudomonas aeruginosa PAO1 H103
[33] = tested on: Klebsiella pneumoniae ESBL 63575
[34] = tested on: Pseudomonas aeruginosa 9
[35] = tested on: Pseudomonas aeruginosa H1027
[36] = tested on: Staphylococcus aureus C623
[37] = tested on: Enterococcus faecalis f43559
[38] = tested on: Klebsiella pneumoniae ESBL 61962
[39] = tested on: Enterococcus faecium mic80
[40] = tested on: Pseudomonas aeruginosa 198
[41] = tested on: Pseudomonas aeruginosa PAK
[42] = tested on: Streptococcus mutans UA159

MIC [1]: 47.5 µM
MIC [2]: 8.37 µM (≈ 16 µg/mL)
MIC [3]: 9.47 µM and 9.5 µM
MIC [4]: 25.5 µM (≈ 48.8 µg/mL)
MIC [5]: ≥ 42.6 µM
MIC [6]: 25.5 µM (≈ 48.7 µg/mL)
MIC [7]: ≥ 42.6 µM
Structure (SMILES): CC[C@H](C)[C@H](NC(=O)[C@H](C)NC(=O)[C@H](CO)NC(=O)[C@@H]1CCCN1C(=O)[C@@H](NC(=O)[C@H](CC(C)C)NC(=O)[C@H](CO)NC(=O)[C@H](Cc1ccccc1)NC(=O)[C@H](CC(C)C)NC(=O)[C@@H](N)Cc1ccccc1)[C@@H](C)CC)C(=O)N[C@@H](CO)C(=O)NCC(=O)N[C@@H](CC(C)C)C(=O)N[C@H](C(=O)N[C@@H](CO)C(=O)N[C@@H](C)C(=O)N[C@@H](Cc1ccccc1)C(=O)N[C@@H](CCCCN)C(N)=O)[C@@H](C)CC [FLFSLIPSAISGLISAFK]

MIC [8]: ≥ 100 µM
MIC [9]: 6 µM (≈ 8.72 µg/mL)
MIC [10]: ≥ 100 µM
Structure (SMILES): CC[C@H](C)[C@H](NC(=O)[C@@H](NC(=O)[C@@H]1CCCN1C(=O)[C@H](CC(C)C)NC(=O)[C@@H](N)Cc1ccccc1)[C@@H](C)CC)C(=O)N[C@H](C(=O)N[C@@H](CC(N)=O)C(=O)N[C@@H](CC(C)C)C(=O)N[C@@H](CC(C)C)C(=O)NCC(=O)N[C@@H](CCCCN)C(=O)N[C@@H](CC(C)C)C(=O)N[C@@H](CC(C)C)C(N)=O)[C@@H](C)O [FLPIITNLLGKLL]

MIC [11]: 3.12 µM (≈ 8 µg/mL)
MIC [12]: 1.56 µM (≈ 4 µg/mL)
MIC [9]: 3.12 µM (≈ 8 µg/mL)
MIC [14]: 6.24 µM (≈ 16 µg/mL)
MIC [15]: 3.12 µM (≈ 8 µg/mL)
Structure (SMILES): CC(C)C[C@H](NC(=O)[C@H](CCCCN)NC(=O)CNC(=O)[C@H](CCCCN)NC(=O)[C@H](Cc1ccccc1)NC(=O)[C@H](CCCCN)NC(=O)[C@H](Cc1c[nH]c2ccccc12)NC(=O)[C@H](CCCN=C(N)N)NC(=O)[C@H](Cc1ccccc1)NC(=O)[C@H](CCCN=C(N)N)NC(=O)[C@H](CCCN=C(N)N)NC(=O)[C@H](Cc1ccc(O)cc1)NC(=O)[C@H](CCCCN)NC(=O)[C@H](CCCCN)NC(=O)[C@H](CS)NC(=O)CN)C(=O)N[C@@H](Cc1ccccc1)C(=O)N[C@@H](CC(C)C)C(=O)N[C@@H](Cc1ccccc1)C(=O)NCC(N)=O [GCKKYRRFRWKFKGKLFLFG]
MIC [13]: 6.24 µM (≈ 16 µg/mL)

MIC [8]: ≥ 40 µM
MIC [9]: 40 µM (≈ 136 µg/mL)
MIC [10]: 25 µM (≈ 85.1 µg/mL)
Structure (SMILES): CC[C@H](C)[C@H](NC(=O)CN)C(=O)N[C@@H](CC(C)C)C(=O)N[C@@H](CC(=O)O)C(=O)N[C@H](C(=O)N[C@@H](Cc1ccccc1)C(=O)N[C@@H](CCCCN)C(=O)NCC(=O)N[C@H](C(=O)N[C@@H](C)C(=O)N[C@@H](CCCCN)C(=O)NCC(=O)N[C@H](C(=O)N[C@@H](C)C(=O)N[C@@H](CCCCN)C(=O)N[C@@H](CC(=O)O)C(=O)N[C@@H](CC(C)C)C(=O)N[C@@H](C)C(=O)N[C@H](C(=O)N[C@@H](Cc1cnc[nH]1)C(=O)N[C@@H](CCSC)C(=O)N[C@@H](CC(C)C)C(=O)N[C@@H](CCC(=O)O)C(=O)N[C@@H](CCCCN)C(=O)N[C@@H](CC(C)C)C(=O)N[C@@H](CCCCN)C(=O)N[C@H]1CSSC[C@@H](C(=O)O)NC(=O)CNC(=O)[C@H]([C@@H](C)O)NC(=O)[C@H](CCSC)NC(=O)[C@H](CCCCN)NC1=O)C(C)C)C(C)C)C(C)C)[C@@H](C)O [GILDTFKGVAKGVAKDLAVHMLEKLKCKMTGC]

MIC [16]: 10.2 µM (≈ 16 µg/mL)
MIC [17]: 20.4 µM (≈ 32 µg/mL)
MIC [18]: 8.83 µM (≈ 13.8 µg/mL)
MIC [19]: 10.2 µM (≈ 16 µg/mL)
MIC [20]: ≥ 40.8 µM
MIC [21]: 20.4 µM (≈ 32 µg/mL)
Structure (SMILES): CC(C)C[C@H](NC(=O)[C@H](Cc1ccccc1)NC(=O)[C@H](CCCN=C(N)N)NC(=O)[C@H](CCCCN)NC(=O)[C@@H](N)CC(C)C)C(=O)N[C@@H](CCCCN)C(=O)N[C@@H](Cc1c[nH]c2ccccc12)C(=O)N[C@@H](Cc1ccccc1)C(=O)N[C@@H](CCCCN)C(=O)N[C@@H](CCCN=C(N)N)C(=O)N[C@@H](Cc1ccccc1)C(N)=O [LKRFLKWFKRF]

MIC [22]: 0.791 µM (≈ 1.1 µg/mL)
MIC [23]: 3.16 µM (≈ 4.4 µg/mL)
MIC [24]: 1.58 µM (≈ 2.2 µg/mL)
MIC [25]: 0.791 µM (≈ 1.1 µg/mL)
MIC [26]: 3.16 µM (≈ 4.4 µg/mL)
MIC [27]: 1.58 µM (≈ 2.2 µg/mL)
MIC [28]: 3.16 µM (≈ 4.4 µg/mL)
MIC [29]: 12.2 µM (≈ 17 µg/mL)
MIC [30]: 0.791 µM (≈ 1.1 µg/mL)
MIC [31]: 1.58 µM (≈ 2.2 µg/mL)
MIC [32]: 3.16 µM (≈ 4.4 µg/mL)
MIC [33]: 1.58 µM (≈ 2.2 µg/mL)
MIC [9]: 1.58 µM (≈ 2.2 µg/mL)
MIC [34]: 6.18 µM (≈ 8.6 µg/mL)
MIC [35]: 0.791 µM (≈ 1.1 µg/mL)
MIC [36]: 1.58 µM (≈ 2.2 µg/mL)
MIC [37]: 12.2 µM (≈ 17 µg/mL)
MIC [38]: 1.58 µM (≈ 2.2 µg/mL)
MIC [39]: 1.58 µM (≈ 2.2 µg/mL)
MIC [40]: 1.58 µM (≈ 2.2 µg/mL)
Structure (SMILES): CC[C@H](C)[C@H](NC(=O)[C@H](Cc1c[nH]c2ccccc12)NC(=O)[C@H](CCCCN)NC(=O)[C@@H](N)CCCN=C(N)N)C(=O)N[C@@H](Cc1c[nH]c2ccccc12)C(=O)N[C@@H](CCCN=C(N)N)C(=O)N[C@@H](Cc1c[nH]c2ccccc12)C(=O)N[C@@H](Cc1ccccc1)C(=O)N[C@@H](CC(C)C)C(=O)O [RKWIWRWFL]

MIC [22]: 6.17 µM (≈ 8.6 µg/mL)
MIC [23]: 6.17 µM (≈ 8.6 µg/mL)
MIC [24]: 6.17 µM (≈ 8.6 µg/mL)
MIC [25]: 6.17 µM (≈ 8.6 µg/mL)
MIC [26]: 25.1 µM (≈ 35 µg/mL)
MIC [27]: 3.15 µM (≈ 4.4 µg/mL)
MIC [28]: 6.17 µM (≈ 8.6 µg/mL)
MIC [29]: ≥ 50.2 µM
MIC [30]: 0.43 µM (≈ 0.6 µg/mL)
MIC [31]: 25.1 µM (≈ 35 µg/mL)
MIC [32]: 3.15 µM (≈ 4.4 µg/mL)
MIC [33]: 25.1 µM (≈ 35 µg/mL)
MIC [9]: 3.15 µM (≈ 4.4 µg/mL)
MIC [34]: 12.2 µM (≈ 17 µg/mL)
MIC [35]: 1.58 µM (≈ 2.2 µg/mL)
MIC [36]: 3.15 µM (≈ 4.4 µg/mL)
MIC [37]: 25.1 µM (≈ 35 µg/mL)
MIC [38]: ≥ 50.2 µM
MIC [39]: 3.15 µM (≈ 4.4 µg/mL)
MIC [40]: 25.1 µM (≈ 35 µg/mL)
Structure (SMILES): CC[C@H](C)[C@H](NC(=O)[C@H](Cc1ccccc1)NC(=O)[C@H](CCCCN)NC(=O)[C@H](Cc1ccccc1)NC(=O)[C@H](CCCN=C(N)N)NC(=O)[C@@H](N)CCCN=C(N)N)C(=O)N[C@@H](CCCN=C(N)N)C(=O)N[C@@H](Cc1c[nH]c2ccccc12)C(=O)N[C@@H](Cc1c[nH]c2ccccc12)C(=O)O [RRFKFIRWW]

MIC [41]: 26.8 µM (≈ 32 µg/mL)
MIC [16]: 26.8 µM (≈ 32 µg/mL)
MIC [17]: ≥ 53.7 µM
MIC [2]: 26.8 µM (≈ 32 µg/mL)
MIC [19]: 26.8 µM (≈ 32 µg/mL)
MIC [20]: 26.8 µM (≈ 32 µg/mL)
MIC [42]: 4.74 µM (≈ 5.65 µg/mL)
MIC [21]: 26.8 µM (≈ 32 µg/mL)
Structure (SMILES): NC(=O)[C@H](Cc1ccccc1)NC(=O)[C@H](Cc1c[nH]c2ccccc12)NC(=O)[C@H](CCCN=C(N)N)NC(=O)[C@H](Cc1c[nH]c2ccccc12)NC(=O)[C@H](CCCN=C(N)N)NC(=O)[C@H](Cc1c[nH]c2ccccc12)NC(=O)[C@@H](N)CCCN=C(N)N [RWRWRWF]
